Common to all, as to assay type: functional
Test [1] deals with Pseudomonas aeruginosa. Briefly: Antibacterial activity against Pseudomonas aeruginosa 2032E WT.
Test [2] concerns Escherichia coli. Briefly: Antibacterial activity against wild Escherichia coli DC0.
A further test concerns Haemophilus influenzae. Description: Antibacterial activity against Haemophilus influenzae 49247.
The subject of the next test is Proteus mirabilis. Briefly: Antibacterial activity against permeable beta-lactamase producing Proteus mirabilis 355.
In another test the test system is Enterobacter cloacae. Description: Antibacterial activity against permeable beta-lactamase producing Enterobacter cloacae 3647.
Test [3] relates to Staphylococcus aureus. Briefly: Antibacterial activity against methicillin resistant Staphylococcus aureus COL.
The test system of test [4] is Staphylococcus aureus. Briefly: Antibacterial activity against beta-lactamase producing Staphylococcus aureus 853E.
Test [5] relates to Pseudomonas aeruginosa. Briefly: Antibacterial activity against permeable mutant Pseudomonas aeruginosa 2033E.
The subject of test [6] is Escherichia coli. Briefly: Antibacterial activity against permeable beta-lactamase producing Escherichia coli DC2 TEML.
Another test concerns Bacteroides fragilis. Description: Antibacterial activity against Bacteroides fragilis 2017E.
The subject of test [7] is Escherichia coli. Description: Antibacterial activity against permeable Escherichia coli DC2.
In test [8] the test system is Staphylococcus aureus. Description: Antibacterial activity against penicillin sensitive Staphylococcus aureus 663E.
Test [9] relates to Staphylococcus aureus. Briefly: Antibacterial activity against methicillin resistant Staphylococcus aureus 1131.
A further test has as its system Enterococcus faecalis. Description: Antibacterial activity against Enterococcus faecalis 850.
The subject of a further test is Clostridium perfringens. Briefly: Antibacterial activity against Clostridium perfringens 615E.
In test [10] the test system is Pseudomonas aeruginosa. Description: Antibacterial activity against Pseudomonas aeruginosa 1911E.

Where only a bound is given, the exact number is not on record here.

Consider `CC1(C)CCC2(C)CCC(C)(C)NC2=N1.CO[C@H]1CC[C@H]2C(=C(C(=O)O)N3C(=O)[C@H]([C@@H](C)O)[C@@H]23)C1`, for which the MIC is over 32 µg/mL against Pseudomonas aeruginosa [1]; 1 µg/mL with Escherichia coli [2]; 0.5 µg/mL in the test with Haemophilus influenzae; 4 µg/mL with Proteus mirabilis; 1 µg/mL against Enterobacter cloacae; over 32 µg/mL against Staphylococcus aureus [3]. Moreover, the MIC turned out to be 0.5 µg/mL with Staphylococcus aureus [4]; 1 µg/mL in the test with Pseudomonas aeruginosa [5]; 1 µg/mL against Escherichia coli [6]; 1 µg/mL against Bacteroides fragilis; 1 µg/mL against Escherichia coli [7]; 0.25 µg/mL against Staphylococcus aureus [8]. Besides, the MIC against Staphylococcus aureus [9] is 32 µg/mL; in the test with Enterococcus faecalis, 4 µg/mL; in the test on Clostridium perfringens it was 0.5 µg/mL; in the test with Pseudomonas aeruginosa [10], over 32 µg/mL.
Take `C[C@@H](O)[C@H]1C(=O)N2C(C(=O)O)=C(SCCNC=N)C[C@H]12.O` [IMIPENEM]: the MIC in the test on Pseudomonas aeruginosa [1] was 4 µg/mL; against Escherichia coli [2], 0.5 µg/mL; against Haemophilus influenzae, 1 µg/mL; with Proteus mirabilis, 1 µg/mL; against Enterobacter cloacae, 2 µg/mL; against Staphylococcus aureus [3], over 32 µg/mL. Further, the MIC against Staphylococcus aureus [4] came to 0.13 µg/mL; in the test with Pseudomonas aeruginosa [5], 0.5 µg/mL; with Escherichia coli [6], 0.5 µg/mL; with Bacteroides fragilis, 0.13 µg/mL; in the test with Escherichia coli [7] it was 0.5 µg/mL; against Staphylococcus aureus [8] it was 0.13 µg/mL. Moreover, the MIC was found to be 4 µg/mL against Staphylococcus aureus [9], 1 µg/mL against Enterococcus faecalis, 0.06 µg/mL in the test with Clostridium perfringens and 4 µg/mL with Pseudomonas aeruginosa [10].
`CC1(C)CCC2(C)CCC(C)(C)NC2=N1.CO[C@@H]1CC[C@H]2C(=C(C(=O)O)N3C(=O)[C@H]([C@@H](C)O)[C@@H]23)C1`: the MIC against Pseudomonas aeruginosa [1] is over 32 µg/mL; with Escherichia coli [2] it was 16 µg/mL; against Haemophilus influenzae it was 16 µg/mL; with Proteus mirabilis, 32 µg/mL; in the test with Enterobacter cloacae it was 16 µg/mL; against Staphylococcus aureus [3] it was over 32 µg/mL. In addition, the MIC amounted to 1 µg/mL with Staphylococcus aureus [4]; 16 µg/mL in the test on Pseudomonas aeruginosa [5]; 1 µg/mL against Escherichia coli [6]; 32 µg/mL against Bacteroides fragilis; 0.5 µg/mL in the test with Escherichia coli [7]; 1 µg/mL against Staphylococcus aureus [8]. The MIC against Staphylococcus aureus [9] was over 32 µg/mL; against Enterococcus faecalis, over 32 µg/mL; against Clostridium perfringens, 8 µg/mL; in the test with Pseudomonas aeruginosa [10], over 32 µg/mL.

These data come from ChEMBL document CHEMBL1128062, “Tricyclic -lactams: total synthesis and antibacterial activity of 5- and 5-methoxy-tribactams” (1995).
